From US20260176228A1, “MODULATORS OF LIVER RECEPTOR HOMOLOGUE 1 (LRH-1) AND USES” (Emory University, priority 2022, published 2026)

How the values were obtained:
LRH-1 = molecular target: T1, LRH-1 (Homo sapiens, UniProt O00482); assay: Luciferase reporter (activation) assay in HeLa cells transfected with full-length LRH-1 and SHP-luc reporter; format: cell-based; conditions: 24 hours treatment, interval in brackets in the cell
T1 construct: The transfected plasmids included full-length LRH-1 in a pCI vector (5 ng/well); expressed in transfected cells; host or cells: HeLa cells
Protocol: HeLa cells were seeded at a density of 10,000 cells per well in white-walled, clear-bottomed 96-well culture plates. The next day, cells were transfected with LRH-1 and reporters, using Fugene™ HD (Roche; Indianapolis, IN) at a ratio of 5:2 Fugene™ (μl): DNA (μg). The transfected plasmids included full-length LRH-1 in a pCI vector (5 ng/well), and a SHP-luc reporter, encoding the LRH-1 response element and surrounding sequence from the SHP promoter cloned upstream of firefly luciferase in the pGL3 basic vector (50 ng/well). Cells were also co-transfected with a constitutive Renilla luciferase reporter (utilizing the CMV promoter), which was used for normalization of firefly signal (1 ng/well). Control cells received pCI empty vector at 5 ng/well in place of LRH-1-pCI. Agonists were dissolved in DMSO and then diluted into media, with a final concentration of 0.3% DMSO in all wells. Luciferase signal was quantified using the DualGlo™ kit (Promega; Madison, WI). Experiments were conducted at least two times in triplicate. Compounds were synthesized and evaluated in biological assays.

LRH-1 LBD [1] = molecular target: T2, LRH-1 LBD (Homo sapiens, UniProt O00482); assay: Thermal stability assay (Tycho NT.6) of LRH-1 LBD complexed with ligands; format: binding; conditions: LRH-1 LBD with 5-fold molar excess of ligand; for Inflection Point (Thermal Stability), shift in parentheses: value in parentheses
T2 construct: LRH-1 LBD (residues 299-541) in the pMSC7 vector; His tag; made in house; host or cells: BL21 (DE3) pLysS E. coli
Protocol: Thermal shift was also assessed for each of the compounds to determine the protein thermal stability. Thermal stability of the LRH-1 LBD complexed with ligands was determined using a Tycho NT.6 Nanotemper. The LRH-1 LBD was incubated with 5-fold molar excess of ligand (final DMSO concentration was 1.4%) overnight at 4° C. in assay buffer (150 mM NaCl, 20 mM Tris-HCl, and 5% glycerol (pH 7.4)). Complexes were centrifuged at high speed for five minutes and then loaded into capillaries. Tryptophan/tyrosine fluorescence was monitored at wavelengths of 330 nm and 350 nm over a 30° C./min gradient (35° C.-95° C.). The inflection point was determined with Tycho NT.6 software. Two separate experiments were conducted in triplicate.

LRH-1 LBD [2] = molecular target: T2, LRH-1 LBD; assay: FP competition (binding) assay; conditions: interval in brackets in the cell
[3] = tested on: other nuclear receptors (NRs); assay: Nuclear receptor cross-reactivity in reporter cells; format: cell-based; conditions: 2 μM in reporter cells; normalized to reference agonist for each receptor
Protocol: 6N-10CA-ME was introduced to reporter cells at 2 μM and the activity of respective NRs was tested. Data are normalized relative to activity induced by the appropriate reference agonist for each receptor.
SF-1 activity was assessed using RT-qPCR for target genes (e.g., Star, Fdps, Hmgcr), though morphological/histological examination of these organs and by monitoring circulating levels of cortisol, aldosterone and androsterone using targeted LC/MS/MS.

hepatic LRH-1 = assay: Liver target gene expression in H-mLRH-1 mice (RNA-seq, RT-qPCR); format: in vivo; conditions: 30 mg/Kg IP injection
Protocol: FIGS. 2A, 2B, and 2C show the target gene expression driven by 6N-10CA-ME. FIG. 2A is a Volcano Plot showing RNA-seq of H-mLRH-1 mice treated with 3 mg/Kg of 6N-10CA-ME via an intraperitoneal injection. FIG. 2B is a Volcano Plot showing RNA-seq of H-mLRH-1 mice treated with 30 mg/Kg of 6N-10CA-ME via an intraperitoneal injection. FIG. 2C is a RT-qPCR showing target gene expression at 3 and 30 mg/kg doses.
The tissue distribution of compounds as described herein and the dosage needed for the in vivo activation of hepatic LRH-1 were evaluated. For these studies, H-mLRH-1 mice (male and female; 10 weeks of age) were used. A single dose time course experiment was conducted in which different cohorts of H-mLRH-1 mice (n=6) were given a high dose (i.e., 30 mg/kg compound) via oral and intraperitoneal (IP) delivery. Liver tissue was harvested and the gene expression of Cyp7a1, Scarb1, ApoA4, and Shp was measured using standard qPCR methods at 1, 3, 6, 12, and 24 hrs. The time of peak target gene expression for a dose finding study was selected. Different cohorts of H-mLRH-1 mice were given 6 doses of the compounds using a half-log scale (i.e., 0, 0.003, 0.03, 0.3, 3, and 30 mg/kg) via oral or IP delivery. Collected liver tissue was used to monitor the expression of the genes listed above.

SF-1 = SF-1 (Homo sapiens, UniProt Q13285); assay: SF-1 LUC-reporter gene activation in cultured cells; format: cell-based
[4] = tested on: H-mLRH-1 mice with diet-induced obesity; assay: Diet-induced obesity (HFD) model, glucose tolerance; format: in vivo; conditions: HFD (60% fat) mice, 3 mg/kg, intraperitoneal daily from 12 to 16 weeks of HFD
Protocol: Male and female mice were treated with 6N-10CA-ME via an intraperitoneal injection starting at 12 weeks of High Fat Diet (HFD; 60% fat) feeding and continuing daily to 16 weeks of HFD feeding. (Panel A) Summary of body weights of mice in each group at 0, 12, and 16 weeks of HFD feeding. (Panels B and C) Fasting blood glucose (mg/dL) levels of mice in each group at 12 and 16 weeks of HFD feeding. (Panel D) Glucose tolerance tests (GTT) following administration of glucose (2 g/kg) at 12 and 16 weeks of HFD feeding. (Panel E) Area under the curve (AUC) summary of GTT at 12 and 16 weeks of HFD feeding. Data are represented as means+/−SEM. Sample size is 6-17 per group. **** p<0.0001 vs. chow. Data were analyzed with a two-way ANOVA with Tukey multiple comparison test.
In this study, a mouse model of DIO was used to evaluate the in vivo efficacy of the compounds as described herein, including the ability of the compounds to (1) attenuate hepatic steatosis and (2) improve glucose tolerance and insulin resistance.
H-mLRH-1 mice (male and female) were fed one of the following diets (OpenSource Diets) for 16 weeks starting at 8 weeks of age: (1) Control Diet (10% fat diet, D12450Ji) or (2) High Fat Diet (HFD, 60% fat; D12492i). […]

diabetic mice = diabetic mice fed DLPC; Lee et al. Nature 2011; cited from earlier work

T1 sequence (O00482 whole entry): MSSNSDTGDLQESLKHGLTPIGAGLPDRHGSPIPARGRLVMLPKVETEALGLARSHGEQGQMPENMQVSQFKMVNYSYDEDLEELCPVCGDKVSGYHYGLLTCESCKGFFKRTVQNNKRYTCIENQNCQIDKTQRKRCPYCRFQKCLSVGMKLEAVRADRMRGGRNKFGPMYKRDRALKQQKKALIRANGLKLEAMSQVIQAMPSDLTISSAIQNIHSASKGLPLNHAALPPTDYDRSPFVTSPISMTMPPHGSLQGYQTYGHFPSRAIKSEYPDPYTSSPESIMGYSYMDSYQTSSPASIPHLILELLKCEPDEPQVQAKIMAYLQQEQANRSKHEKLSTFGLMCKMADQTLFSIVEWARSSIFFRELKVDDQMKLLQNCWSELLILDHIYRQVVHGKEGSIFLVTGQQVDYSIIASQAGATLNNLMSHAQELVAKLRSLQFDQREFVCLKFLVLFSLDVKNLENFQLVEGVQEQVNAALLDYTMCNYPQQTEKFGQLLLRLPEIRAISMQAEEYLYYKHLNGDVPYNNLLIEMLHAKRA
T2 sequence (O00482 299-541): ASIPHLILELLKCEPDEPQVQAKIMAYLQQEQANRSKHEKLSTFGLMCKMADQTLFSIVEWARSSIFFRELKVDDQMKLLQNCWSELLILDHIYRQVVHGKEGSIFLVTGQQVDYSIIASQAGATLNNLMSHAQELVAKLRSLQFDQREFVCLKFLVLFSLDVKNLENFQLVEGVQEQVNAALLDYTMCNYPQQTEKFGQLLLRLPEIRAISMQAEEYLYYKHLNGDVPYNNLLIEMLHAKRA
Chain of SF-1 (Q13285 whole entry): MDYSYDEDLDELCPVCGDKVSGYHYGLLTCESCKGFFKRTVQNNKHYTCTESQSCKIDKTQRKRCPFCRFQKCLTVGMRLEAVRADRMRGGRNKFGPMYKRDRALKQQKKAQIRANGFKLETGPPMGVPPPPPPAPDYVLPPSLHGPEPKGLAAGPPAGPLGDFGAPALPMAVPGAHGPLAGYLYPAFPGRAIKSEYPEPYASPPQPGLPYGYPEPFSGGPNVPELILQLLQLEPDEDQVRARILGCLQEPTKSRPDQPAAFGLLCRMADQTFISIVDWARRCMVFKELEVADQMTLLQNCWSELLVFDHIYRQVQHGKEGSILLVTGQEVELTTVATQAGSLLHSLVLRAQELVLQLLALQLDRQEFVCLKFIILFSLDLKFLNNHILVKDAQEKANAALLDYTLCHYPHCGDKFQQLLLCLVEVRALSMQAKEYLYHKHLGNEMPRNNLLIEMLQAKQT

With `C=C(c1ccccc1)C12CCC(NS(N)(=O)=O)C1CC(CCOCCCOCCC(=O)O)=C2c1ccccc1` (stereo not drawn) [Compound 6N-10CA-DE, 3-(3-(2-(3-phenyl-3a-(1-phenylvinyl)-6-(sulfamoylamino)-1,3a,4,5,6,6a-hexahydropentalen-2-yl)ethoxy)propoxy) propanoic acid] the EC50 (LRH-1) was 1200 nM, the “Inflection Point (Thermal Stability)” value (LRH-1 LBD [1]) was 61 °C and the “Inflection Point (Thermal Stability), shift in parentheses” value (“Inflection Point … shift in parentheses” below) (LRH-1 LBD [1]) was “+5.9 °C”. The Ki (LRH-1 LBD [2]) was 480 nM.
With `C=C(c1ccccc1)C12CCC(NS(N)(=O)=O)C1CC(CCCCOCCCCC(=O)O)=C2c1ccccc1` (stereo not drawn) [Compound 6N-10CA-ME, 5-(4-(3-phenyl-3a-(1-phenylvinyl)-6-(sulfamoylamino)-1,3a,4,5,6,6a-hexahydropentalen-2-yl)butoxy) pentanoic acid] the EC50 (LRH-1) was 50 nM, the “Inflection Point (Thermal Stability)” value (LRH-1 LBD [1]) was 65 °C and the “Inflection Point … shift in parentheses” value (LRH-1 LBD [1]) was “+9.9 °C”. The “Cross-reactivity with other nuclear receptors” value [3] was “minimal cross-reactivity”, the “Liver target gene expression” value (hepatic LRH-1) was “elevation of Cyp7a1 and Apoa4 and a reduction in Fasn” and the “SF-1 activity (LUC-reporter gene activation)” value (SF-1) was “displays SF-1 activity”. For the same molecule, the Glucose intolerance [4] was “reduces glucose intolerance” and the Ki (LRH-1 LBD [2]) was 12 nM.
For `C=C(c1ccccc1)C12CCC(O)C1CC(CCOCCCOCCC(=O)O)=C2c1ccccc1` (stereo not drawn) [Compound 10CA-DE, 3-(3-(2-(6-hydroxy-3-phenyl-3a-(1-phenylvinyl)-1,3a,4,5,6,6a-hexahydropentalen-2-yl)ethoxy)propoxy) propanoic acid], the EC50 (LRH-1) was 3200 nM, the “Inflection Point (Thermal Stability)” value (LRH-1 LBD [1]) was 57 °C and the “Inflection Point … shift in parentheses” value (LRH-1 LBD [1]) was “+1.9 °C”. It also gave a Ki (LRH-1 LBD [2]) of 10000 nM.
With `C=C(c1ccccc1)C12CCC(O)C1CC(CCCCOCCCCC(=O)O)=C2c1ccccc1` (stereo not drawn) [Compound 10CA-ME, 5-(4-(6-hydroxy-3-phenyl-3a-(1-phenylvinyl)-1,3a,4,5,6,6a-hexahydropentalen-2-yl)butoxy) pentanoic acid] the EC50 (LRH-1) was 870 nM, the “Inflection Point (Thermal Stability)” value (LRH-1 LBD [1]) was 59 °C and the “Inflection Point … shift in parentheses” value (LRH-1 LBD [1]) was “+3.9 °C”. For the same molecule, the Ki (LRH-1 LBD [2]) was 110 nM.
For `CCCCCCCCCCCC(=O)OC[C@H](COP(=O)([O-])OCC[N+](C)(C)C)OC(=O)CCCCCCCCCCC` [DLPC, dilauroyl-phosphatidylcholine], the “Glucose tolerance and hepatic fat accumulation” value (diabetic mice) is given as “improved glucose tolerance and reduced hepatic fat accumulation”.
